These results are taken from PubChem BioAssay (NCI).

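In this assay, cells in 96-well plates receive the compound at five concentrations for 48 hours. Endpoints are linearly interpolated between the surrounding concentrations. GI50: concentration for 50% inhibition of growth. The concentration for full growth arrest is given as TGI.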

Some test systems named below: CAKI-1 renal; MOLT-4 leukemia; OVCAR-3 ovarian; UACC-257 melanoma; COLO 205 colon; NCI-H226 lung; SK-MEL-28 melanoma; NCI-H522 lung; SW-620 colon; M14 melanoma.
Holding throughout (experiment): inhibition of tumour cell growth, NCI panel, 48 h

On to `OCc1cn(Cc2cccc(Cl)c2)c2ccccc12`, for which the TGI with CAKI-1 renal came to 1.87 µM; in the test on MOLT-4 leukemia, 44.4 µM; in the test on OVCAR-3 ovarian, 1.1 µM; in the test on UACC-257 melanoma it was 5.61 µM; with COLO 205 colon, 20.3 µM; with NCI-H226 lung it was 0.222 µM. Moreover, the TGI stood at 60.9 µM in the test with SK-MEL-28 melanoma, 22.7 µM in the test with NCI-H522 lung, 33.3 µM in the test on SW-620 colon and 29.6 µM in the test with M14 melanoma. Also, the GI50 in the test with MOLT-4 leukemia was 10.6 µM; in the test on OVCAR-3 ovarian it was 0.128 µM; in the test with UACC-257 melanoma it was 0.823 µM; in the test on COLO 205 colon, 0.432 µM; with NCI-H226 lung, 0.0313 µM; in the test with SK-MEL-28 melanoma it was 20.5 µM. The results for the GI50 with NCI-H522 lung, with SW-620 colon and in the test with M14 melanoma were 5.95 µM, 0.586 µM and 11.3 µM, respectively.

As to `CCCC1c2c(ccc3ccccc23)Oc2ccc3ccccc3c21`, the TGI was over 100 µM in the test on CAKI-1 renal; over 100 µM with MOLT-4 leukemia; over 100 µM in the test with OVCAR-3 ovarian; 70.8 µM in the test with UACC-257 melanoma; over 100 µM in the test with COLO 205 colon; over 100 µM in the test on NCI-H226 lung. Moreover, the TGI is over 100 µM in the test with SK-MEL-28 melanoma, 80.4 µM in the test on NCI-H522 lung, over 100 µM in the test with SW-620 colon and over 100 µM in the test with M14 melanoma.

Turning to `C[C@@H]1C=C(CCCCCCCCCCC[C@H](O)[C@@H]2CCC(=O)O2)C(=O)O1`, the GI50 is 35.8 µM in the test on CAKI-1 renal; 21.6 µM in the test with MOLT-4 leukemia; 16.4 µM with OVCAR-3 ovarian; 43.2 µM with UACC-257 melanoma; 19.1 µM with COLO 205 colon; 15.9 µM with NCI-H226 lung. Besides, the GI50 with SK-MEL-28 melanoma is 78.3 µM; in the test on NCI-H522 lung it was 15.9 µM; with SW-620 colon, 37.6 µM; in the test on M14 melanoma it was 25.1 µM. The TGI with CAKI-1 renal is over 100 µM; in the test on MOLT-4 leukemia, 42.6 µM; in the test with OVCAR-3 ovarian, 44.7 µM; with UACC-257 melanoma it was over 100 µM; in the test with COLO 205 colon it was 40.6 µM; in the test with NCI-H226 lung, 68.5 µM. The TGI in the test with SK-MEL-28 melanoma was over 100 µM; in the test on NCI-H522 lung, 49.2 µM; with SW-620 colon, over 100 µM; in the test on M14 melanoma, 87.9 µM.

As to `C/C(=N/S(=O)(=O)c1ccc(Cl)c(Cl)c1)OCC(C)(C)C`, the TGI in the test with CAKI-1 renal, in the test with MOLT-4 leukemia, in the test with OVCAR-3 ovarian, with UACC-257 melanoma, in the test on COLO 205 colon and in the test with NCI-H226 lung was over 100 µM each time. Further, the TGI with SK-MEL-28 melanoma, in the test with NCI-H522 lung, in the test on SW-620 colon and in the test on M14 melanoma was over 100 µM in each case.

Take `CCCCCCCCCCCCCCCCCC(=O)OCC(CN(C)CCN(C)C)OC(=O)CCCCCCCCCCCCCCCCC` (stereo unspecified): the TGI with CAKI-1 renal was over 100 µM; in the test with MOLT-4 leukemia, 83.7 µM; in the test with OVCAR-3 ovarian it was over 100 µM; in the test with UACC-257 melanoma it was over 100 µM; in the test with COLO 205 colon, over 100 µM; in the test on NCI-H226 lung, over 100 µM. In addition, the TGI with SK-MEL-28 melanoma, in the test on NCI-H522 lung, with SW-620 colon and in the test with M14 melanoma was over 100 µM in each case.

As for `C(=N\Nc1ccccn1)/c1ccccn1`, the GI50 in the test with CAKI-1 renal was 0.257 µM; with MOLT-4 leukemia it was 0.392 µM; in the test with OVCAR-3 ovarian, 0.286 µM; in the test with UACC-257 melanoma it was 0.453 µM; in the test on COLO 205 colon, 0.356 µM; in the test on NCI-H226 lung, 0.356 µM. Besides, the GI50 in the test with SK-MEL-28 melanoma was 0.816 µM; in the test with NCI-H522 lung, 0.71 µM; in the test on SW-620 colon, 0.557 µM; with M14 melanoma, 0.313 µM. Moreover, the TGI is over 50.7 µM with CAKI-1 renal; over 100 µM in the test on MOLT-4 leukemia; over 100 µM in the test on COLO 205 colon; over 100 µM in the test on SK-MEL-28 melanoma; over 100 µM in the test on NCI-H522 lung; over 100 µM with SW-620 colon. In the test with M14 melanoma, this compound came in with a TGI of 57.2 µM.

`COc1ccc(/C=N/N=C(\N)NO)cc1OC`: the TGI in the test on CAKI-1 renal is 92.3 µM; in the test with MOLT-4 leukemia it was over 100 µM; in the test with OVCAR-3 ovarian, over 100 µM; with UACC-257 melanoma it was over 100 µM; in the test on COLO 205 colon, over 100 µM; in the test with NCI-H226 lung, over 100 µM. Besides, the TGI with SK-MEL-28 melanoma was over 100 µM; in the test with NCI-H522 lung it was 79.9 µM; with SW-620 colon, over 100 µM; in the test on M14 melanoma, 96.9 µM.

For the compound `C1CC[N-]CC1.C1CC[N-]CC1.C1CC[N-]CC1.C1CC[N-]CC1.[Cl][Rh][Cl]`, the GI50 was 67.7 µM in the test with CAKI-1 renal; 13.7 µM in the test on MOLT-4 leukemia; 10.6 µM in the test on OVCAR-3 ovarian; 3.21 µM in the test with UACC-257 melanoma; 3.17 µM with COLO 205 colon; 4.47 µM in the test on NCI-H226 lung. Also, the GI50 is 3.36 µM in the test on SK-MEL-28 melanoma, 1.03 µM with NCI-H522 lung, 6.12 µM with SW-620 colon and 6.26 µM in the test on M14 melanoma. For the same compound, the TGI is over 100 µM in the test on CAKI-1 renal; over 100 µM in the test on MOLT-4 leukemia; 41.3 µM in the test on OVCAR-3 ovarian; 69.4 µM with UACC-257 melanoma; 9.34 µM in the test with COLO 205 colon; over 100 µM in the test on NCI-H226 lung. Besides, the TGI in the test on SK-MEL-28 melanoma was 21.6 µM; in the test on NCI-H522 lung it was 2.65 µM; with SW-620 colon, over 100 µM; with M14 melanoma, over 100 µM.

In the case of `c1ccc(Cc2nc3ccc(Nc4ncnc5ccccc45)cc3[nH]2)cc1`, the GI50 with CAKI-1 renal was 8.34 µM; in the test on MOLT-4 leukemia it was over 25 µM; with OVCAR-3 ovarian it was over 25 µM; in the test with UACC-257 melanoma, over 25 µM; in the test with COLO 205 colon it was over 25 µM; in the test on NCI-H226 lung it was over 25 µM. Besides, the GI50 in the test on SK-MEL-28 melanoma is over 25 µM; in the test on NCI-H522 lung it was over 15.1 µM; in the test with SW-620 colon, over 25 µM; in the test with M14 melanoma, over 25 µM. The TGI in the test with CAKI-1 renal, in the test on MOLT-4 leukemia, in the test on OVCAR-3 ovarian, in the test on UACC-257 melanoma, in the test on COLO 205 colon and in the test with NCI-H226 lung was over 25 µM throughout. The TGI in the test with SK-MEL-28 melanoma, with NCI-H522 lung, in the test on SW-620 colon and in the test with M14 melanoma was over 25 µM in each case.
